Patent US8859527B2 (priority 2009, dated 2014)
Where two headings read alike, the source gives them in different places.

Columns and labels:
[1] = water solubility by the method of Chinese Pharmacopoeia 2005; format: physicochemical; details: DPT not included
Procedure: HP-β-CD and DPT are prepared into inclusion complexes under different conditions, and the DPT concentration in the inclusion complex is determined by ultraviolet spectrophotometry, and the composition molar ratio of DPT to HP-β-CD in the inclusion complex is further calculated; the water-solubility of the inclusion complex is determined according to the method specified in the examples of Chinese Pharmacopoeia 2005, so that solubility of DPT in this inclusion complex is further calculated.
With regard to the three factors, namely the concentration of HP-β-CD solution, the temperature for inclusion and the duration for inclusion, orthogonal experiments are carried out on three levels (the concentrations of the HP-β-CD solutions are 10%, 20% and 30%; the temperatures are 40° C., 50° C. and 60° C.; the duration is 1 hour, 2 hour and 3 hour), content and solubility of DPT in the inclusion complex are used as the evaluation parameters for the efficacy of inclusion, and the results are shown in Table 3. The solubility is determined by the method specified in the examples in Chinese Pharmacopoeia 2005, and the results are shown in Table 4.
The DPT content in the inclusion complex is determined by ultraviolet spectrophotometry. The solubility is determined by using the method specified in the examples in Chinese Pharmacopoeia 2005, and the results are shown in Table 6.

[2] = tested on: Hep G2 (human hepatic cancer cell line); assay: in vitro growth inhibition of tumor cells, Hep G2; format: cell-based; details: HepG2, 48 hours
Procedure: The tumor strains are A-549 (human lung adenocarcinoma cell line), BGC-823 (human gastric cancer cell line), C-6 (rat neurogliocytoma cell line), Hep G2 (human hepatic cancer cell line), HL-60 (human leukemia cell line), K-562 (human erythremia cell line) and Hela (human cervical cancer cell line). […] The drug was prepared as a stock solution of 10^−2 M by using physiological saline and diluted into the test solution in a gradient composed of five concentrations: C1 5×10^−5 M, C2 10^−5 M, C3 10^−6 M, C4 10^−7 M and C5 10^−8 M.
Experimental method: different tumor cells in exponential growth phase are inoculated in 96-well plates in a certain amount and the selected samples are added after the cells are cultured for 24 hours (suspension cells can be directly added after being inoculated), after the cells are incubated at 37° C. and 5% CO2 for another 48 hours, […] is added for further incubation for another 4 hours, and finally the samples are examined on a microplate reader after dissolving with DMSO.

[3] = tested on: colon cancer HT-29; details: cited from earlier work
[4] = tested on: human non-small cell lung cancer H460 xenograft tumor; details: for Ending body weight / Tumor weight / Tumor-inhibition rate: 21 days
Procedure: The test article: the inclusion complex of DPT and SBE-β-CD, the content is 5.05%. Preparation Method: it is dissolved in a proper amount of saline after gentle shaking and the concentration is 0.4 mg/ml (which is the test solution for the 8 mg/kg group); other concentrations are prepared by diluting the stock solution of 0.4 mg/ml to the required concentration with physiological saline.
The control article: Etoposide injection produced by Qilu Pharmaceutical Co., Ltd. the batch number is 8060012EV, specification: 5 ml:0.1 g. Preparation Method: Etoposide injection is a kind of transparent sticky liquid and it is diluted with a proper amount of physiological saline and gently shaken and prepared as a homogeneous solution, and the concentration is 1 mg/ml.
Dosage setting: the high dosage group of DPT is 8 mg/kg, the medium dosage group of DPT is 4 mg/kg and the low dosage group of DPT is 2 mg/kg. The dosage for the positive control group of Etoposide injection is 20 mg/kg.
Experimental animals: source, germline and strain: BALB/c nude mice are provided by the Institute of Experimental Animals, Chinese Academy of Medical Sciences. Age: 35-40 days; body weight: 18-24 g; gender: male.
Transplanted tumor: the transplanted tumor for human nonsmall-cell lung cancer H460 in nude mice, and it is established by inoculating the human nonsmall-cell lung cancer H460 cell line hypodermically in the armpit of nude mice. 2×10^6 cells are inoculated.
Human non-small cell lung cancer H460 cell line in exponential phase of growth is prepared as a cell suspension of 2×10^7/ml under sterile conditions, 0.1 ml thereof is inoculated hypodermically in the right armpit of nude mice. The diameters of the transplanted tumors in the nude mice are measured by a sliding caliper, and the animals are randomly divided into different groups when the tumors grow up to the amount of 100 to 300 mm^3. The antitumor efficacy of the test article is dynamically observed by measuring the diameter of the tumor. The diameters of the tumor are determined once for every two days. The administration volume is 0.4 ml/20 g. The mice are killed 21 days after administration, and the tumors are surgically isolated and weighed. The calculation formula for tumor volume (TV) is as follows: TV=½×a×b^2 Wherein a and b represents for the length and the width, respectively.
The relative tumor volume (RTV) is calculated according to the measured results, and the calculation formula is as follows: RTV=Vt/V0. Wherein V0 is the tumor size measured during grouping and drug administration (d0), Vt is the tumor size in every measurements. The evaluation parameter for antitumor activity is the relative tumor growth rate T/C (%) which is calculated according to the formula as follows:
[formula] TRTV: the treatment group RTV; CRTV: the negative control group: RTV.

[5] = H460 nude mice, 8 mg/kg iv three times a week, 9 times

COc1cc([C@@H]2c3cc4c(cc3C[C@H]3COC(=O)[C@@H]32)OCO4)cc(OC)c1OC [DPT, Deoxypodophyllotoxin]
solubility of DPT in water [1]: about 0.5 mg/L
Inhibition effects on in vitro growth ([2]; 5 × 10^−5M): 52.98%
Inhibition effects on in vitro growth ([2]; 10^−5M): 31.85%
Inhibition effects on in vitro growth ([2]; 10^−6M): 22.49%
Inhibition effects on in vitro growth ([2]; 10^−7M): 24.36%
Inhibition effects on in vitro growth ([2]; 10^−8M): 24.32%
in vitro inhibition effects [3]: in vitro inhibition effects
Tumor volume ([4]; 2 mg/kg iv, 0 d): 296 ± 117 mm^3
RTV ([4]; 2 mg/kg iv, 2 d): 1.396 ± 0.251
T/C ([4]; 2 mg/kg iv, 2 d): 86.85%
Tumor volume ([4]; 2 mg/kg iv, 2 d): 427 ± 190 mm^3
RTV ([4]; 2 mg/kg iv, 4 d): 1.827 ± 0.373
T/C ([4]; 2 mg/kg iv, 4 d): 69.97%
Tumor volume ([4]; 2 mg/kg iv, 4 d): 554 ± 234 mm^3
RTV ([4]; 2 mg/kg iv, 6 d): 2.391 ± 0.764
T/C ([4]; 2 mg/kg iv, 6 d): 78.07%
Tumor volume ([4]; 2 mg/kg iv, 6 d): 729 ± 364 mm^3
RTV ([4]; 2 mg/kg iv, 8 d): 2.819 ± 0.559
T/C ([4]; 2 mg/kg iv, 8 d): 64.20%
Tumor volume ([4]; 2 mg/kg iv, 8 d): 807 ± 294 mm^3
Gross tumor volume ([4]; 2 mg/kg iv, 10 d): 1039 ± 316 mm^3
RTV ([4]; 2 mg/kg iv, 10 d): 3.750 ± 1.015
T/C ([4]; 2 mg/kg iv, 10 d): 74.96%
Gross tumor volume ([4]; 2 mg/kg iv, 12 d): 1424 ± 511 mm^3
RTV ([4]; 2 mg/kg iv, 12 d): 5.122 ± 1.538
T/C ([4]; 2 mg/kg iv, 12 d): 68.96%
RTV ([4]; 2 mg/kg iv, 14 d): 6.698 ± 2.532
T/C ([4]; 2 mg/kg iv, 14 d): 78.93%
Tumor volume ([4]; 2 mg/kg iv, 14 d): 1777 ± 386 mm^3
RTV ([4]; 2 mg/kg iv, 16 d): 8.626 ± 3.791
T/C ([4]; 2 mg/kg iv, 16 d): 86.49%
Tumor volume ([4]; 2 mg/kg iv, 16 d): 2249 ± 394 mm^3
RTV ([4]; 2 mg/kg iv, 18 d): 8.825 ± 3.701
T/C ([4]; 2 mg/kg iv, 18 d): 78.31%
Tumor volume ([4]; 2 mg/kg iv, 18 d): 2304 ± 405 mm^3
RTV ([4]; 2 mg/kg iv, 21 d): 9.776 ± 3.452
T/C ([4]; 2 mg/kg iv, 21 d): 84.89%
Tumor volume ([4]; 2 mg/kg iv, 21 d): 2591 ± 412 mm^3
Tumor volume ([4]; 4 mg/kg iv, 0 d): 272 ± 131 mm^3
RTV ([4]; 4 mg/kg iv, 2 d): 1.324 ± 0.236
T/C ([4]; 4 mg/kg iv, 2 d): 82.37%
Tumor volume ([4]; 4 mg/kg iv, 2 d): 381 ± 234 mm^3
RTV ([4]; 4 mg/kg iv, 4 d): 1.823 ± 0.427
T/C ([4]; 4 mg/kg iv, 4 d): 69.82%
Tumor volume ([4]; 4 mg/kg iv, 4 d): 521 ± 288 mm^3
RTV ([4]; 4 mg/kg iv, 6 d): 2.465 ± 0.699
T/C ([4]; 4 mg/kg iv, 6 d): 80.49%
Tumor volume ([4]; 4 mg/kg iv, 6 d): 729 ± 471 mm^3
RTV ([4]; 4 mg/kg iv, 8 d): 3.331 ± 0.641
T/C ([4]; 4 mg/kg iv, 8 d): 75.85%
Tumor volume ([4]; 4 mg/kg iv, 8 d): 906 ± 434 mm^3
Gross tumor volume ([4]; 4 mg/kg iv, 10 d): 1052 ± 475 mm^3
RTV ([4]; 4 mg/kg iv, 10 d): 4.041 ± 1.493
T/C ([4]; 4 mg/kg iv, 10 d): 80.78%
Gross tumor volume ([4]; 4 mg/kg iv, 12 d): 1261 ± 586 mm^3
RTV ([4]; 4 mg/kg iv, 12 d): 4.780 ± 1.070
T/C ([4]; 4 mg/kg iv, 12 d): 64.35%
RTV ([4]; 4 mg/kg iv, 14 d): 5.954 ± 1.425
T/C ([4]; 4 mg/kg iv, 14 d): 70.16%
Tumor volume ([4]; 4 mg/kg iv, 14 d): 1530 ± 572 mm^3
RTV ([4]; 4 mg/kg iv, 16 d): 6.870 ± 1.613
T/C ([4]; 4 mg/kg iv, 16 d): 68.88%
Tumor volume ([4]; 4 mg/kg iv, 16 d): 1740 ± 637 mm^3
RTV ([4]; 4 mg/kg iv, 18 d): 7.697 ± 2.279
T/C ([4]; 4 mg/kg iv, 18 d): 68.30%
Tumor volume ([4]; 4 mg/kg iv, 18 d): 1891 ± 664 mm^3
RTV ([4]; 4 mg/kg iv, 21 d): 7.832 ± 1.816
T/C ([4]; 4 mg/kg iv, 21 d): 68.01%
Tumor volume ([4]; 4 mg/kg iv, 21 d): 1945 ± 586 mm^3
Tumor volume ([4]; 8 mg/kg iv, 0 d): 247 ± 108 mm^3
RTV ([4]; 8 mg/kg iv, 2 d): 1.248 ± 0.113
T/C ([4]; 8 mg/kg iv, 2 d): 77.61%
Tumor volume ([4]; 8 mg/kg iv, 2 d): 313 ± 151 mm^3
RTV ([4]; 8 mg/kg iv, 4 d): 1.721 ± 0.287
T/C ([4]; 8 mg/kg iv, 4 d): 65.92%
Tumor volume ([4]; 8 mg/kg iv, 4 d): 430 ± 196 mm^3
RTV ([4]; 8 mg/kg iv, 6 d): 2.403 ± 0.652
T/C ([4]; 8 mg/kg iv, 6 d): 78.45%
Tumor volume ([4]; 8 mg/kg iv, 6 d): 559 ± 179 mm^3
RTV ([4]; 8 mg/kg iv, 8 d): 2.747 ± 0.766
T/C ([4]; 8 mg/kg iv, 8 d): 62.55%
Tumor volume ([4]; 8 mg/kg iv, 8 d): 635 ± 183 mm^3
Gross tumor volume ([4]; 8 mg/kg iv, 10 d): 895 ± 252 mm^3
RTV ([4]; 8 mg/kg iv, 10 d): 3.853 ± 0.732
T/C ([4]; 8 mg/kg iv, 10 d): 77.03%
Gross tumor volume ([4]; 8 mg/kg iv, 12 d): 1034 ± 246 mm^3
RTV ([4]; 8 mg/kg iv, 12 d): 4.548 ± 1.106
T/C ([4]; 8 mg/kg iv, 12 d): 61.23%
RTV ([4]; 8 mg/kg iv, 14 d): 4.845 ± 1.330
T/C ([4]; 8 mg/kg iv, 14 d): 57.10%
Tumor volume ([4]; 8 mg/kg iv, 14 d): 1122 ± 368 mm^3
RTV ([4]; 8 mg/kg iv, 16 d): 4.955 ± 1.786
T/C ([4]; 8 mg/kg iv, 16 d): 49.68%
Tumor volume ([4]; 8 mg/kg iv, 16 d): 1132 ± 397 mm^3
RTV ([4]; 8 mg/kg iv, 18 d): 5.609 ± 1.197
T/C ([4]; 8 mg/kg iv, 18 d): 49.77%
Tumor volume ([4]; 8 mg/kg iv, 18 d): 1292 ± 340 mm^3
RTV ([4]; 8 mg/kg iv, 21 d): 5.721 ± 0.925
T/C ([4]; 8 mg/kg iv, 21 d): 49.68%
Tumor volume ([4]; 8 mg/kg iv, 21 d): 1375 ± 558 mm^3
Initial body weight ([4]; H460 nude mice, 2 mg/kg iv group): 22.50 ± 1.38 g
Ending body weight ([4]; H460 nude mice, 2 mg/kg iv): 25.32 ± 2.25 g
Tumor weight ([4]; H460 nude mice, 2 mg/kg iv): 2.94 ± 0.68 g
Tumor-inhibition rate ([4]; H460 nude mice, 2 mg/kg iv): 9.49%
Initial body weight ([4]; H460 nude mice, 4 mg/kg iv group): 23.33 ± 2.25 g
Ending body weight ([4]; H460 nude mice, 4 mg/kg iv): 23.32 ± 2.08 g
Tumor weight ([4]; H460 nude mice, 4 mg/kg iv): 2.52 ± 0.92 g
Tumor-inhibition rate ([4]; H460 nude mice, 4 mg/kg iv): 22.56%
Initial body weight ([4]; H460 nude mice, 8 mg/kg iv group): 22.33 ± 1.51 g
Ending body weight [4, 5]: 22.55 ± 2.50 g
Tumor weight [4, 5]: 1.85 ± 0.95 g
Tumor-inhibition rate [4, 5]: 43.08%
effects on the body weight of the animals ([4]; H460 nude mice, dosage groups of DPT (8, 4, 2 mg/kg iv)): no significant inhibition effects on the body weight of the animals
